Values joined by “and” are separate entries in the source; they are usually repeats but may differ in a detail not shown here. Equal entries are not always repeated. Toxic doses and inconclusive results are not listed.
System: BDF1 mice, P388 leukemia ip, median survival T/C
Assay: NCI In Vivo Anticancer Drug Screen. Data for tumor model P388 Leukemia (intraperitoneal) in B6D2F1 (BDF1) mice
Conditions: endpoint: median survival time, higher = longer survival
In short: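 Read-out is survival of treated animals expressed relative to the vehicle group, as a T/C ratio.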

[1] = dose: 100.0 mg/kg/injection, schedule: Q01DX009 (ip), vehicle: Klucel (hydroxypropylcellulose) (HPC)
[2] = dose: 100.0 mg/kg/injection, schedule: Q01DX009 (ip), vehicle: saline with Tween-80
[3] = dose: 400.0 mg/kg/injection, schedule: Q01DX009 (ip), vehicle: saline with Tween-80
[4] = dose: 50.0 mg/kg/injection, schedule: Q01DX009 (ip), vehicle: Klucel (hydroxypropylcellulose) (HPC)
[5] = dose: 100.0 mg/kg/injection, schedule: Q04DX003 (ip), vehicle: saline with Tween-80
[6] = dose: 50.0 mg/kg/injection, schedule: Q01DX009 (ip), vehicle: saline with Tween-80
[7] = dose: 200.0 mg/kg/injection, schedule: Q01DX009 (ip), vehicle: saline with Tween-80

With COc1ccc(CCC(C(=O)O)c2ccc(OC)c(OC)c2)cc1OC (stereo not given) the T/C (dose: 45.0 mg/kg/injection, schedule: Q01DX009 (ip), vehicle: Klucel (hydroxypropylcellulose) (HPC)) was 95 % of control, the T/C (dose: 65.0 mg/kg/injection, schedule: Q01DX009 (ip), vehicle: Klucel (hydroxypropylcellulose) (HPC)) was 90 % of control and the T/C [1] was 95 % of control. The T/C (dose: 150.0 mg/kg/injection, schedule: Q01DX009 (ip), vehicle: Klucel (hydroxypropylcellulose) (HPC)) was 90 % of control.

For CC1CC(N)=NC1C(=O)NCCC#N (stereo not given), the T/C [2] was 98 % of control and the T/C [3] was 98 % of control.

In the case of CCOC(=O)C1=C(C)NC(C)=C(C(=O)OCC)C1c1cccc([N+](=O)[O-])c1, the T/C [4] is reported as 105 % of control, the T/C [1] is reported as 100 % of control and the T/C (dose: 200.0 mg/kg/injection, schedule: Q01DX009 (ip), vehicle: Klucel (hydroxypropylcellulose) (HPC)) is reported as 90 % of control.

With COc1cc2c(c(OC)c1OC)-c1cc3c(cc1[C@@H](O)[C@@H]1COC(=O)[C@@H]21)OCO3 the T/C (dose: 6.2 mg/kg/injection, schedule: Q01DX009 (ip), vehicle: saline) was 90 % of control, the T/C (dose: 9.3 mg/kg/injection, schedule: Q01DX009 (ip), vehicle: saline) was 86 % of control and the T/C (dose: 14.0 mg/kg/injection, schedule: Q01DX009 (ip), vehicle: saline) was 109 % of control. For the same molecule, the T/C (dose: 21.0 mg/kg/injection, schedule: Q01DX009 (ip), vehicle: saline) was 100 % of control.

In the case of NC(c1ccccc1)C(N)c1ccccc1 (stereo not given), the T/C [5] is reported as 95 % of control.

In the case of COC(=O)c1cc(Cl)nc2nc(Cl)nc(Cl)c12, the T/C (dose: 50.0 mg/kg/injection, schedule: Q01DX009 (ip), vehicle: DMSO) is reported as 114 % of control, the T/C (dose: 100.0 mg/kg/injection, schedule: Q01DX009 (ip), vehicle: DMSO) is reported as 112 % of control and the T/C (dose: 200.0 mg/kg/injection, schedule: Q01DX009 (ip), vehicle: DMSO) is reported as 102 % of control.

With C#CCN(C)CCO the T/C (dose: 100.0 mg/kg/injection, schedule: Q01DX001 (ip), vehicle: saline) was 105 % of control, the T/C (dose: 100.0 mg/kg/injection, schedule: Q04DX003 (ip), vehicle: alcohol) was 90 % of control and the T/C (dose: 200.0 mg/kg/injection, schedule: Q01DX001 (ip), vehicle: saline) was 95 % of control. The T/C (dose: 200.0 mg/kg/injection, schedule: Q04DX003 (ip), vehicle: alcohol) was 100 % of control, the T/C (dose: 400.0 mg/kg/injection, schedule: Q01DX001 (ip), vehicle: saline) was 100 % of control and the T/C (dose: 400.0 mg/kg/injection, schedule: Q04DX003 (ip), vehicle: alcohol) was 100 % of control.

With CC1(C)N=C(N)N=C(N)N1c1ccc(OCCOc2ccc(S(=O)(=O)F)cc2)c(Cl)c1 the T/C (dose: 12.5 mg/kg/injection, schedule: Q04DX003 (ip), vehicle: saline with Tween-80) was 158 % of control, the T/C (dose: 13.0 mg/kg/injection, schedule: Q04DX003 (ip), vehicle: saline with Tween-80) was 160 % of control and the T/C (dose: 20.0 mg/kg/injection, schedule: Q04DX003 (ip), vehicle: saline with Tween-80) was 185 % of control. For the same molecule, the T/C (dose: 25.0 mg/kg/injection, schedule: Q04DX003 (ip), vehicle: saline with Tween-80) was 170 % of control, the T/C (dose: 30.0 mg/kg/injection, schedule: Q04DX003 (ip), vehicle: saline with Tween-80) was 185 % of control and the T/C (dose: 33.0 mg/kg/injection, schedule: Q01DX009 (ip), vehicle: Klucel (hydroxypropylcellulose) (HPC)) was 227 % of control. The T/C [4] was 154 % of control, the T/C [6] was 268 % of control and the T/C (dose: 50.0 mg/kg/injection, schedule: Q04DX003 (ip), vehicle: saline with Tween-80) was 154 % of control and 162 % of control. For the same molecule, the T/C (dose: 66.0 mg/kg/injection, schedule: Q04DX003 (ip), vehicle: saline with Tween-80) was 180 % of control, the T/C (dose: 75.0 mg/kg/injection, schedule: Q01DX009 (ip), vehicle: Klucel (hydroxypropylcellulose) (HPC)) was 163 % of control and the T/C (dose: 75.0 mg/kg/injection, schedule: Q04DX003 (ip), vehicle: saline with Tween-80) was 170 % of control. The T/C [2] was 90 % of control, the T/C [5] was 180 % of control and the T/C (dose: 150.0 mg/kg/injection, schedule: Q04DX003 (ip), vehicle: saline with Tween-80) was 232 % of control. For the same molecule, the T/C (dose: 200.0 mg/kg/injection, schedule: Q04DX003 (ip), vehicle: saline with Tween-80) was 108 % of control.

For CCCN1CCN(c2ccc([N+](=O)[O-])c3no[n+]([O-])c23)CC1, the T/C (dose: 2.5 mg/kg/injection, schedule: Q01DX009 (ip), vehicle: saline with Tween-80) was 122 % of control and the T/C (dose: 10.0 mg/kg/injection, schedule: Q01DX009 (ip), vehicle: saline with Tween-80) was 155 % of control.

In the case of CCN(c1ccccc1)c1cc2c(cc1[N+](=O)[O-])no[n+]2[O-], the T/C (dose: 30.0 mg/kg/injection, schedule: Q01DX009 (ip), vehicle: saline with Tween-80) is reported as 123 % of control and the T/C (dose: 60.0 mg/kg/injection, schedule: Q01DX009 (ip), vehicle: saline with Tween-80) is reported as 113 % of control.

With COc1ccc(C(O)CNC(=O)c2ccccc2)cc1 (stereo not given) the T/C (dose: 66.0 mg/kg/injection, schedule: Q04DX003 (ip), vehicle: Klucel (hydroxypropylcellulose) (HPC)) was 109 % of control and 110 % of control, the T/C (dose: 100.0 mg/kg/injection, schedule: Q04DX003 (ip), vehicle: Klucel (hydroxypropylcellulose) (HPC)) was 255 % of control and 104 % of control and 115 % of control and the T/C (dose: 150.0 mg/kg/injection, schedule: Q04DX003 (ip), vehicle: Klucel (hydroxypropylcellulose) (HPC)) was 109 % of control and 115 % of control.

In the case of CS/C(=C\c1ccc2cc(C)ccc2[n+]1C)N1CCOCC1, the T/C (dose: 1.56 mg/kg/injection, schedule: Q01DX009 (ip), vehicle: saline) is reported as 112 % of control and the T/C (dose: 3.12 mg/kg/injection, schedule: Q01DX009 (ip), vehicle: saline) is reported as 119 % of control.

In the case of COc1ccc(C(O)c2ccccc2C(=O)Nc2ccccc2)cc1 (stereo not given), the T/C [2] is reported as 90 % of control and the T/C [7] is reported as 100 % of control.

For COc1ccc(/C=C/C(=O)c2ccc(OC)c(OC)c2)cc1O, the T/C (dose: 25.0 mg/kg/injection, schedule: Q01DX009 (ip), vehicle: saline) was 108 % of control, the T/C (dose: 50.0 mg/kg/injection, schedule: Q01DX009 (ip), vehicle: saline) was 101 % of control and the T/C (dose: 50.0 mg/kg/injection, schedule: Q04DX003 (ip), vehicle: saline) was 107 % of control. The T/C (dose: 100.0 mg/kg/injection, schedule: Q01DX009 (ip), vehicle: saline) was 106 % of control, the T/C (dose: 100.0 mg/kg/injection, schedule: Q04DX003 (ip), vehicle: saline) was 110 % of control and the T/C (dose: 200.0 mg/kg/injection, schedule: Q01DX009 (ip), vehicle: saline) was 90 % of control. The T/C (dose: 200.0 mg/kg/injection, schedule: Q04DX003 (ip), vehicle: saline) was 107 % of control, the T/C (dose: 400.0 mg/kg/injection, schedule: Q01DX009 (ip), vehicle: saline) was 99 % of control and the T/C (dose: 400.0 mg/kg/injection, schedule: Q04DX003 (ip), vehicle: saline) was 124 % of control.

For O=C(O)C1CC2C=CC1C2 (stereo not given), the T/C (dose: 12.5 mg/kg/injection, schedule: Q01DX009 (ip), vehicle: saline with Tween-80) was 118 % of control, the T/C (dose: 25.0 mg/kg/injection, schedule: Q01DX009 (ip), vehicle: saline with Tween-80) was 113 % of control and the T/C [6] was 109 % of control. The T/C [2] was 110 % of control and 100 % of control, the T/C [7] was 90 % of control and the T/C [3] was 86 % of control.
